{"source": "patent US20170029866A1", "about": "(Ameritox, Ltd, priority 2015, published 2017)", "key": {"[1]": {"test": "Haldol in urine samples before hydrolysis", "assay_type": "in vivo, human", "conditions": "Without Hydrolysis; summary of Table 1, N 151"}, "[2]": {"test": "Haldol in urine samples after hydrolysis with a betaglucuronidase enzyme", "assay_type": "in vivo, human"}, "[3]": {"conditions": "With hydrolysis, summary of Table 1, N 151"}}, "data": [{"smiles": "O=C(CCCN1CCC(O)(c2ccc(Cl)cc2)CC1)c1ccc(F)cc1", "note": "[Haldol, Haloperidol]", "values": [{"measurement": "Avg", "setting": "[1]", "result": 30.7}, {"measurement": "Max", "setting": "[1]", "result": 414.0}, {"measurement": "Min", "setting": "[1]", "result": 0.0}, {"measurement": "Avg", "setting": "[2]; [3]", "result": 982.5}, {"measurement": "Max", "setting": "[2]; [3]", "result": 16805.6}, {"measurement": "Min", "setting": "[2]; [3]", "result": 0.0}, {"measurement": "amount of Haldol determined in urine samples post hydrolysis versus before", "setting": "[2]; human urine, betaglucuronidase hydrolysis", "result": "increased post hydrolysis"}]}]}
